Counter-ions that a name gives are not always drawn. Like-named read-outs stand apart in the source and are kept apart here.
Key:
[1] = Hepatocyte stability assay, mouse; assay type: in vitro ADME; settings: mouse, hepatocytes; for hepatocyte CLint at 10 μM: Hepatocyte stability Clint; for half-life at 10 μM: Hepatocyte stability T½
Summary of the method: (§1)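 Metabolic stability was measured as depletion of 10 μM compound in thawed hepatocytes (0.5×10^6 cells/mL, 37° C, up to 60 min). Intrinsic clearance came from the slope of log-transformed percentage remaining.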

[2] = system: IL-6 cytokine output from THP-1s; test: THP-1 AlphaLISA IL-6 cytokine inhibition assay; assay type: cell-based; settings: Homo sapiens, LPS then nigericin
Method: The cytokine inhibition profiles of compounds of formula (I) were determined in a differentiated THP-1 cell assay. All assays were performed in RPMI-1640 growth medium (Gibco), supplemented with 10% fetal bovine serum (FBS; Gibco), 1% penicillin-streptomycin and 1% sodium pyruvate unless specified otherwise. The IL-1β cytokine inhibition assay was run in a background of differentiated THP-1 cells as described below. All reagents described were from Sigma-Aldrich unless specified otherwise. Compounds were prepared as 10 mM DMSO stocks.
THP-1 cells were expanded as a suspension up to 80% confluence in appropriate growth medium. Cells were harvested, suspended, and treated with an appropriate concentration of phorbol 12-myristate 13-acetate (PMA) over a 72 hr period (37° C./5% CO2).
Following 72 hrs of THP-1 cell incubation, cellular medium was removed and replaced with fresh growth media containing 1% of FBS. Working concentrations of compounds were prepared separately in 10% FBS treated growth medium and pre-incubated with the cells for 30 minutes (37° C./5% CO2). Following the 30 minute compound pre-incubation, THP-1s were treated with an appropriate concentration of LPS and the cells were subsequently incubated for a 24 hr period (37° C./5% CO2). An appropriate final concentration of Nigericin was then dispensed into the THP-1 plates and incubated for 1 hour (37° C./5% CO2) before THP-1 supernatants were harvested and collected in separate polypropylene 96-well holding plates.
Reagents from an IL-1β and IL-6 commercial kit (Perkin Elmer) were prepared and run according to the manufacturer's instructions. Subsequently, fluorescence signal detection in a microplate reader was measured (EnVision® Multilabel Reader, Perkin Elmer).
Percentage inhibition was calculated per cytokine by normalising the sample data to the high and low controls used within each plate (+/− LPS respectively).

[3] = system: IL-1β cytokine output from THP-1s; test: THP-1 AlphaLISA IL-1β cytokine inhibition assay; assay type: cell-based; settings: Homo sapiens
Summary of the method: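 IL-1β release by AlphaLISA, expressed as % inhibition against +/− LPS controls on each plate. Differentiation: PMA, 72 h. Sequence: 30 min compound pre-treatment, LPS 24 h, Nigericin 1 h before supernatant harvest, all at 37° C./5% CO2.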

[4] = system: NRF2 (nuclear factor erythroid 2-related factor 2); test: NRF2 +/-GSH activation assay (DiscoverX PathHunter NRF2 translocation kit, U2OS cells); assay type: cell-based
Summary of the method: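 Activation is expressed as percent of plate DMF (high) versus no-DMF (low) controls, from luminescence after 6 h compound exposure at 37 °C of U2OS PathHunter cells. The +GSH condition used compound pre-incubated 30 min in 6 mM working GSH; −GSH cells received compound directly.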

[5] = Hepatocyte stability assay, human; assay type: in vitro ADME; settings: human, hepatocytes; for hepatocyte CLint at 10 μM: Hepatocyte stability Clint; for half-life at 10 μM: Hepatocyte stability T½
Summary of the method: as §1

[6] = THP-1, differentiated THP-1 cells
[7] = THP-1, differentiated THP-1 cells, LPS then nigericin
[8] = +GSH, 30 minute compound-GSH pre-incubation, read-out: NRF2 activation +GSH EC50
[9] = +GSH, normalised to DMF high control
[10] = −GSH, U2OS PathHunter cells, 6 hours compound treatment, read-out: NRF2 activation −GSH EC50
[11] = −GSH, normalised to DMF high control
[12] = THP-1, Table 3, head to head comparison of exo vs endo double bond compounds

Row | Structure (SMILES) | IC50 [3, 7] | EC50 [4, 8] | EC50 [4, 10] | IC50 ([2]; differentiated THP-1 cells) | IC50 [3, 12] | EC50 ([4]; −GSH, Table 5 exo vs endo comparison, read-out: −GSH EC50) | hepatocyte CLint at 10 μM [1] | half-life at 10 μM [1] | IC50 [2, 6] | NRF2 activation +GSH Emax [4, 9] | NRF2 activation −GSH Emax [4, 11] | hepatocyte CLint at 10 μM [5] | half-life at 10 μM [5] | −GSH Emax ([4]; −GSH, normalised to DMF high control, Table 5 exo vs endo comparison)
1 | C=C(Cc1noc(CCCCCCCC)n1)C(=O)O [Example 3, 2-((5-octyl-1,2,4-oxadiazol-3-yl)methyl)acrylic acid] | 14.6 µM | 6.9 µM | 3.7 µM | – | – | – | 117 µL/min/1e6 cells | 12 min | 4.4 µM | 199% | 218% | 110 µL/min/1e6 cells | 15 min | –
2 | C=C(Cc1nc(CCCCCCC)no1)C(=O)O [Example 6, 2-((3-heptyl-1,2,4-oxadiazol-5-yl)methyl)acrylic acid] | 24.7 µM | 29.1 µM | 22.9 µM | – | – | – | 185 µL/min/1e6 cells | 9 min | 26 µM | 170% | 190% | 38 µL/min/1e6 cells | 31 min | –
3 | C=C(Cc1nc(C2(c3cc(Cl)cc(Cl)c3)CC2)no1)C(=O)O [Example 67, 2-((3-(1-(3,5-dichlorophenyl)cyclopropyl)-1,2,4-oxadiazol-5-yl)methyl)acrylic acid] | 69.4 µM | – | – | – | – | – | 92 µL/min/1e6 cells | 13 min | 4.1 µM | – | – | 70 µL/min/1e6 cells | 23 min | –
4 | C=C(Cc1nc(Cc2ccc(OC(F)(F)C(F)F)cc2)no1)C(=O)O [Example 81, 2-((3-(4-(1,1,2,2-tetrafluoroethoxy)benzyl)-1,2,4-oxadiazol-5-yl)methyl)acrylic acid] | 22 µM | – | – | – | – | – | 94 µL/min/1e6 cells | 18 min | 12.8 µM | – | – | < 3 µL/min/1e6 cells | > 460 min | –
5 | C=C(Cc1nc(C2(c3ccc(OC(F)(F)C(F)F)cc3)CC2)no1)C(=O)O [Example 82, 2-((3-(1-(4-(1,1,2,2-tetrafluoroethoxy)phenyl)cyclopropyl)-1,2,4-oxadiazol-5-yl)methyl)acrylic acid] | 14.5 µM | – | – | – | – | – | 30 µL/min/1e6 cells | 58 min | 20.7 µM | – | – | < 3 µL/min/1e6 cells | > 460 min | –
6 | C=C(Cc1nc(C(F)(F)c2ccc(C(F)(F)F)cc2)no1)C(=O)O [Example 92, 2-((3-(difluoro(4-(trifluoromethyl)phenyl)methyl)-1,2,4-oxadiazol-5-yl)methyl)acrylic acid] | 6.7 µM | – | – | – | – | – | 23 µL/min/1e6 cells | 84 min | 19.9 µM | – | – | < 3 µL/min/1e6 cells | > 460 min | –
7 | C=C(Cc1nc(-c2ccc(Cl)cc2)c(CCCC)o1)C(=O)O [Example 109, 2-((5-butyl-4-(4-chlorophenyl)oxazol-2-yl)methyl)acrylic acid] | > 31.6 µM | – | – | – | – | – | 61 µL/min/1e6 cells | 28 min | 10.6 µM | – | – | 20 µL/min/1e6 cells | 79 min | –
8 | CCCCCCCCc1noc(/C=C(\C)C(=O)O)n1 [Example 166, (E)-2-methyl-3-(3-octyl-1,2,4-oxadiazol-5-yl)acrylic acid] | > 31.6 µM | – | – | 31.5 µM | > 31.6 µM | – | 204 µL/min/1e6 cells | 7 min | – | – | – | 260 µL/min/1e6 cells | 6 min | –
9 | C=C(Cc1cccc(Cc2ccc(Cl)cc2)n1)C(=O)O [Example 171, 2-((6-(4-chlorobenzyl)pyridin-2-yl)methyl)acrylic acid trifluoroacetic acid salt] | > 100 µM | > 100 µM | > 100 µM | – | – | – | – | – | > 100 µM | 0% | 5% | – | – | –

Second part, led by results:

Row | IC50 [3, 7] | EC50 [4, 8] | EC50 [4, 10] | IC50 ([2]; differentiated THP-1 cells) | IC50 [3, 12] | EC50 ([4]; −GSH, Table 5 exo vs endo comparison, read-out: −GSH EC50) | Structure (SMILES) | hepatocyte CLint at 10 μM [1] | half-life at 10 μM [1] | IC50 [2, 6] | NRF2 activation +GSH Emax [4, 9] | NRF2 activation −GSH Emax [4, 11] | hepatocyte CLint at 10 μM [5] | half-life at 10 μM [5] | −GSH Emax ([4]; −GSH, normalised to DMF high control, Table 5 exo vs endo comparison)
10 | 39 µM | – | – | 23.1 µM | – | – | C=C(Cc1noc(C(F)(F)c2ccc(Cl)cc2)n1)C(=O)O [Example 84, 2-((5-((4-chlorophenyl)difluoromethyl)-1,2,4-oxadiazol-3-yl)methyl)acrylic acid] | 83 µL/min/1e6 cells | 21 min | – | – | – | 14 µL/min/1e6 cells | 115 min | –
11 | 9.5 µM | – | – | 8.4 µM | – | – | C=C(Cc1nc(CCCCCCCC)c(C)o1)C(=O)O [Example 107, 2-((5-methyl-4-octyloxazol-2-yl)methyl)acrylic acid] | > 460 µL/min/1e6 cells | < 3 min | – | – | – | 161 µL/min/1e6 cells | 8 min | –
12 | 13.2 µM | – | – | 17.9 µM | – | – | C=C(Cc1nc(C2(c3cc(F)c(Cl)c(F)c3)CC2)no1)C(=O)O [Example 135, 2-((3-(1-(4-chloro-3,5-difluorophenyl)cyclopropyl)-1,2,4-oxadiazol-5-yl)methyl)acrylic acid] | 159 µL/min/1e6 cells | 8 min | – | – | – | 31 µL/min/1e6 cells | 45 min | –
13 | 2.9 µM | – | – | 3.9 µM | – | – | C=C(Cc1nc(C2(c3ccc(C(F)(F)F)c(Cl)c3)CC2)no1)C(=O)O [Example 136, 2-((3-(1-(3-chloro-4-(trifluoromethyl)phenyl)cyclopropyl)-1,2,4-oxadiazol-5-yl)methyl)acrylic acid] | 79 µL/min/1e6 cells | 16 min | – | – | – | 44 µL/min/1e6 cells | 32 min | –
14 | > 31.6 µM | 34.9 µM | 38.7 µM | 21 µM | > 31.6 µM | 38.7 µM | C/C(=C\c1nc(C2(c3ccc(SC(F)(F)F)cc3)CC2)no1)C(=O)O [Example 170] | – | – | – | 96.5% | 177% | – | – | 177%
15 | 5.1 µM | > 100 µM | > 100 µM | 67.5 µM | – | – | C=C(C(=O)O)C(C)(C)c1nc(C2(c3ccc(C(F)(F)F)cc3)CC2)no1 [Example 172] | – | – | – | 7.6% | 0% | – | – | –
16 | 7.6 µM | 61.1 µM | 52.5 µM | > 100 µM | – | – | C=C(C(=O)O)C1(c2nc(C(F)(F)c3ccc(C(F)(F)F)cc3)no2)CC1 [Example 173, 2-(1-(3-(difluoro(4-(trifluoromethyl)phenyl)methyl)-1,2,4-oxadiazol-5-yl)cyclopropyl)acrylic acid] | – | – | – | 2.1% | 64% | – | – | –
17 | 4.2 µM | > 100 µM | > 100 µM | > 100 µM | – | – | C=C(C(=O)O)C(C)c1nc(C2(c3ccc(C(F)(F)F)cc3)CC2)no1 (stereo not shown) [Example 174, 2-methylene-3-(3-(1-(4-(trifluoromethyl)phenyl)cyclopropyl)-1,2,4-oxadiazol-5-yl)butanoic acid] | – | – | – | 1.8% | 24% | – | – | –
18 | 62.2 µM | > 100 µM | > 54.8 µM | 40.6 µM | – | – | C=C(Cc1cccc(C2(c3ccc(Cl)cc3)CC2)n1)C(=O)O [Example 175, 2-((6-(1-(4-chlorophenyl)cyclopropyl)pyridin-2-yl)methyl)acrylic acid] | – | – | – | 4.0% | 43% | – | – | –
19 | 3.2 µM | – | 5.4 µM | 7.6 µM | – | – | C=C(Cc1nc(C2(c3cc(Cl)c(Br)c(Cl)c3)CC2)no1)C(=O)O [Example 176, 2-((3-(1-(4-bromo-3,5-dichlorophenyl)cyclopropyl)-1,2,4-oxadiazol-5-yl)methyl)acrylic acid] | – | – | – | – | 222% | – | – | –
